pIC50: −log10 of the molar value.
How the values were obtained:
[1] = biological target: T1, NavMs (Magnetococcus marinus, UniProt A0L5S6, F208L); experiment: X-ray crystal structure with sulphur anomalous signal; […]-19F STD NMR; IC50 from whole-cell patch clamp (SSI shift) in HEK293T cells; assay type: cell-based
T1 construct: gene Mmc1_0798; full-length homotetrameric channel, thrombin-treated

[2] = biological target: NavMs (NavMs F208L, referred to as WT in the paper), prokaryotic voltage-gated sodium channel from Magnetococcus marinus (Magnetococcus marinus) (UniProt A0L5S6); experiment: crystal structure; NavMs (10 mg/ml, 300 uM) with 0.5 mM riluzole in 1% DMSO, or 1% DMSO alone; sitting drops at 4 °C, 30-35% PEG 300, 100 mM HEPES pH 7, 0-100 mM NaCl, HEGA-10 detergent; space group I422, one monomer per asymmetric unit, tetramer by crystal symmetry

T1 sequence (A0L5S6 entry or part of it F208L): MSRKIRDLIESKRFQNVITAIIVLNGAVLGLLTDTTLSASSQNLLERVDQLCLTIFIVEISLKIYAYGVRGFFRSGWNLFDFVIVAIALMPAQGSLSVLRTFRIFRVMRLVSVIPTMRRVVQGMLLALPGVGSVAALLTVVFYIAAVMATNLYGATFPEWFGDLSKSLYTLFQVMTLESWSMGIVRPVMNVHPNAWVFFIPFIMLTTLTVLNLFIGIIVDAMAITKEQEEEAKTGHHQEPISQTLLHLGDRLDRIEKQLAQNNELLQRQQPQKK

stoichiometry N [2]	Compound	pIC50 [1]
	Nc1nc2ccc(OC(F)(F)F)cc2s1 [riluzole, 2-amino-6-(trifluoromethoxy)benzothiazole]	5.70
4	NavMs (NavMs F208L, referred to as WT in the paper), prokaryotic voltage-gated sodium channel from Magnetococcus marinus (from UniProt A0L5S6 1-274) (natural protein)	
